In ChEMBL document CHEMBL5365467 (J Med Chem, 2023):

Tests used:
[1] = Volume of distribution at steady state in non human primate at 1 mg/kg, iv measured upto 24 hrs by LC-MS/MS analysis; assay type: ADME, organism-based; conditions: primates, in vivo, read-out: Vdss
[2] = Metabolic stability in non human primate plasma assessed as half life measured after 2 hrs by LC-MS/MS analysis; assay type: ADME, cell-free; conditions: primates
[3] = Oral bioavailability in Beagle dog at 10 mg/kg measured upto 24 hrs by LC-MS/MS analysis; assay type: ADME, organism-based, Canis lupus familiaris; conditions: in vivo
[4] = Clearance in Beagle dog at 1 mg/kg, iv measured upto 24 hrs by LC-MS/MS analysis; assay type: ADME, organism-based, Canis lupus familiaris; conditions: in vivo
[5] = Metabolic stability in non human primate liver microsome assessed as half life measured upto 45 mins in presence of NADPH by LC-MS/MS analysis; assay type: ADME; conditions: primates, liver microsomes
[6] = Tmax in Beagle dog at 10 mg/kg, po measured upto 24 hrs by LC-MS/MS analysis; assay type: ADME, organism-based, Canis lupus familiaris; conditions: in vivo
[7] = Metabolic stability in rat plasma assessed as parent compound remaining measured after 120 mins by LC-MS/MS analysis; assay type: ADME, cell-free; conditions: read-out: Stability
[8] = Clearance in ICR mouse at 2 mg/kg, iv measured upto 24 hrs by LC-MS/MS analysis; assay type: ADME, organism-based; conditions: in vivo
LNCaP = test: Growth inhibition in human LNCaP cells assessed as reduction in cell viability
[9] = AUC (0 to t) in ICR mouse at 5 mg/kg, po measured upto 24 hrs by LC-MS/MS analysis; assay type: ADME, organism-based; parameters: dose 5 mg/kg, time < 24 hrs, route po; conditions: in vivo
[10] = Metabolic stability in mouse hepatocyte assessed as half life measured upto 120 mins by LC-MS/MS analysis; assay type: ADME, cell-based; conditions: hepatocytes
[11] = Metabolic stability in mouse liver microsome assessed as parent compound remaining measured at 120 mins in presence of NADPH by LC-MS/MS analysis; assay type: ADME; conditions: liver microsomes, read-out: Stability
in vivo [12] = conditions: Sprague-Dawley, rat, po, 5 mg/kg
[13] = Toxicity in CB17-SCID mouse assessed as body weight loss at 10 to 40 mg/kg, po administered for 21 days; assay type: organism-based; conditions: in vivo, 504 h, dose 10-40 mg/kg, time 21 day
[14] = Half life in Beagle dog at 10 mg/kg, po measured upto 24 hrs by LC-MS/MS analysis; assay type: ADME, organism-based, Canis lupus familiaris; conditions: in vivo
[15] = Volume of distribution at steady state in ICR mouse at 2 mg/kg, iv measured upto 24 hrs by LC-MS/MS analysis; assay type: ADME, organism-based; conditions: in vivo, read-out: Vdss
[16] = Half life in Sprague-Dawley rat at 2 mg/kg, iv measured upto 24 hrs by LC-MS/MS analysis; conditions: in vivo
[17] = Volume of distribution at steady state in Beagle dog at 1 mg/kg, iv measured upto 24 hrs by LC-MS/MS analysis; assay type: ADME, organism-based, Canis lupus familiaris; conditions: in vivo, read-out: Vdss
[18] = Half life in ICR mouse at 5 mg/kg, po measured upto 24 hrs by LC-MS/MS analysis; assay type: ADME, organism-based; conditions: in vivo
VCaP [19] = test: Antitumor activity against human VCaP cells xenografted in CB17-SCID mouse assessed as tumor growth inhibition at 20 mg/kg, po administered for 21 days; conditions: 504 h, read-out: TGI
[20] = Metabolic stability in rat liver microsome assessed as half life measured upto 45 mins in presence of NADPH by LC-MS/MS analysis; assay type: ADME; conditions: liver microsomes
[21] = Tmax in Sprague-Dawley rat at 5 mg/kg, po measured upto 24 hrs by LC-MS/MS analysis; assay type: ADME, organism-based; conditions: in vivo
[22] = Tmax in ICR mouse at 5 mg/kg, po measured upto 24 hrs by LC-MS/MS analysis; assay type: ADME, organism-based; conditions: in vivo
[23] = Volume of distribution at steady state in Sprague-Dawley rat at 2 mg/kg, iv measured upto 24 hrs by LC-MS/MS analysis; conditions: in vivo
[24] = Metabolic stability in mouse plasma assessed as half life measured after 2 hrs by LC-MS/MS analysis; assay type: ADME, cell-free
[25] = Metabolic stability in human hepatocyte assessed as half life measured upto 120 mins by LC-MS/MS analysis; assay type: ADME, cell-based; conditions: hepatocytes
[26] = Half life in Beagle dog at 1 mg/kg, iv measured upto 24 hrs by LC-MS/MS analysis; assay type: ADME, organism-based, Canis lupus familiaris; conditions: in vivo
in vivo [27] = conditions: Sprague-Dawley, rat, po, 5 mg/kg; remark: listed apart in the source
[28] = target: Protein cereblon/Androgen receptor (Homo sapiens, UniProt P10275+Q96SW2, L702H/T878A); conditions: mda-pca-2b
[29] = Metabolic stability in rat plasma assessed as half life measured after 2 hrs by LC-MS/MS analysis; assay type: ADME, cell-free
VCaP [30] = test: Antitumor activity against human VCaP cells xenografted in CB17-SCID mouse assessed as tumor growth inhibition at 10 mg/kg, po administered for 21 days; assay type: functional; conditions: 504 h, time 21 day, read-out: TGI
[31] = Tmax in non human primate at 2 mg/kg, po measured upto 24 hrs by LC-MS/MS analysis; assay type: ADME, organism-based; conditions: primates, in vivo
[32] = Metabolic stability in dog plasma assessed as half life measured after 2 hrs by LC-MS/MS analysis; assay type: ADME, cell-free, Canis lupus familiaris
[33] = Metabolic stability in dog hepatocyte assessed as half life measured upto 120 mins by LC-MS/MS analysis; assay type: ADME, cell-based, Canis lupus familiaris; conditions: hepatocytes
[34] = Oral bioavailability in non human primate at 2 mg/kg measured upto 24 hrs by LC-MS/MS analysis; assay type: ADME, organism-based; conditions: primates, in vivo
[35] = Metabolic stability in dog plasma assessed as parent compound remaining measured after 120 mins by LC-MS/MS analysis; assay type: ADME, cell-free, Canis lupus familiaris; conditions: read-out: Stability
[36] = Metabolic stability in non human primate hepatocyte assessed as half life measured upto 120 mins by LC-MS/MS analysis; assay type: ADME, cell-based; conditions: primates, hepatocytes
[37] = Metabolic stability in mouse liver microsome assessed as half life measured upto 45 mins in presence of NADPH by LC-MS/MS analysis; assay type: ADME; conditions: liver microsomes
[38] = Clearance in non human primate at 1 mg/kg, iv measured upto 24 hrs by LC-MS/MS analysis; assay type: ADME, organism-based; conditions: primates, in vivo
[39] = Oral bioavailability in ICR mouse at 5 mg/kg measured upto 24 hrs by LC-MS/MS analysis; assay type: ADME, organism-based; conditions: in vivo
[40] = AUC (0 to t) in non human primate at 2 mg/kg, po measured upto 24 hrs by LC-MS/MS analysis; assay type: ADME, organism-based; parameters: time < 24 hrs, dose 2 mg/kg, route po; conditions: primates, in vivo
[41] = Metabolic stability in non human primate plasma assessed as parent compound remaining measured after 120 mins by LC-MS/MS analysis; assay type: ADME, cell-free; conditions: primates, read-out: Stability
[42] = Half life in Sprague-Dawley rat at 5 mg/kg, po measured upto 24 hrs by LC-MS/MS analysis; conditions: in vivo
[43] = Metabolic stability in human plasma assessed as half life measured after 2 hrs by LC-MS/MS analysis; assay type: ADME, cell-free
[44] = Clearance in Sprague-Dawley rat at 2 mg/kg, iv measured upto 24 hrs by LC-MS/MS analysis; conditions: in vivo
[45] = Metabolic stability in dog liver microsome assessed as half life measured upto 45 mins in presence of NADPH by LC-MS/MS analysis; assay type: ADME, Canis lupus familiaris; conditions: liver microsomes
[46] = AUC (0 to t) in non human primate at 1 mg/kg, iv measured upto 24 hrs by LC-MS/MS analysis; assay type: ADME, organism-based; parameters: dose 1 mg/kg, time < 24 hrs, route iv; conditions: primates, in vivo

Chain of Protein cereblon/Androgen receptor (P10275 whole entry L702H/T878A, stated change not applied): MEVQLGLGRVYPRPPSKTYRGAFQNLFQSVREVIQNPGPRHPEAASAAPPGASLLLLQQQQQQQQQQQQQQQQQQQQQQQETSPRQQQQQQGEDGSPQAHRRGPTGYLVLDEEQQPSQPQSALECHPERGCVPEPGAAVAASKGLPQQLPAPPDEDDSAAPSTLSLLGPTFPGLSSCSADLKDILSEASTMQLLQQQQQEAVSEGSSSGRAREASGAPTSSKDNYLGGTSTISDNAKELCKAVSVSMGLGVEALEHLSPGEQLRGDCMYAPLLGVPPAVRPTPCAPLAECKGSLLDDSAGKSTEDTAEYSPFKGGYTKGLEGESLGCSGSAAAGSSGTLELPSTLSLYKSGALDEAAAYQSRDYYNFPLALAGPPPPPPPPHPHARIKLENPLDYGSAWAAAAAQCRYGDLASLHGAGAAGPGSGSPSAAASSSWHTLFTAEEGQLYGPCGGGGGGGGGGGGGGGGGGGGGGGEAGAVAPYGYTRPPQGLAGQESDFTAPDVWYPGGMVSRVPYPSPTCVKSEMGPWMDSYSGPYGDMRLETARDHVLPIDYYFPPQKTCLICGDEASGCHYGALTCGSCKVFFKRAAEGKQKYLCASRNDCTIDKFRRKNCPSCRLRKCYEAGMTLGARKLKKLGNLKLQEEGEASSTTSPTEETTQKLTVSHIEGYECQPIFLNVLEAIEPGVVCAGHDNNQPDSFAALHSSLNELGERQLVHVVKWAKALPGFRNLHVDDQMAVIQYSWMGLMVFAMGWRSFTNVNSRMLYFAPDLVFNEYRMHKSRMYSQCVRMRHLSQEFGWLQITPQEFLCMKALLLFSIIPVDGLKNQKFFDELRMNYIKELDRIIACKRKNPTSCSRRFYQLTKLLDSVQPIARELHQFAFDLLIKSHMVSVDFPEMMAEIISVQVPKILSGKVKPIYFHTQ
Chain of Protein cereblon/Androgen receptor (Q96SW2 whole entry, stated change not applied): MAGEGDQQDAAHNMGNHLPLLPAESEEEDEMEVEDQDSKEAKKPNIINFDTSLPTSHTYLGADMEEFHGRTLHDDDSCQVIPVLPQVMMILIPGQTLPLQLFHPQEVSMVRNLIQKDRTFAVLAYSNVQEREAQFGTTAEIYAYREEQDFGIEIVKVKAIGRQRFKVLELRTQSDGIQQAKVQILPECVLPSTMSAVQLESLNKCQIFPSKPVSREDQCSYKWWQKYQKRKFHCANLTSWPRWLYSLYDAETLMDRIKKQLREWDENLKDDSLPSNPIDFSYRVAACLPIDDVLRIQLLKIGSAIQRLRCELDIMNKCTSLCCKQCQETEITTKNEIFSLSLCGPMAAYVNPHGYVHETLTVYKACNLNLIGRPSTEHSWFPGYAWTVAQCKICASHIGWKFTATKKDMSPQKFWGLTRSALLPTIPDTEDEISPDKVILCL

SMILES: C[C@H]1CC2(CCN(c3ccc(C(=O)N4CCC(CN5Cc6cc7c(cc6C5)C(=O)N(C5CCC(=O)NC5=O)C7=O)CC4)cc3)CC2)CN1c1ccc(C#N)c(Cl)c1 (some centres not stated)
- Vd [1]: 2.07 L/kg
- half-life [2]: > 2 h
- bioavailability [3]: 31%
- clearance [4]: 3.17 mL/min/kg
- half-life at […] [5]: > 1 h
- Tmax [6]: 3 h
- remaining at 2 h [7]: 52%
- clearance [8]: 0.667 mL/min/kg
- IC50 (LNCaP): 2.8 nM
- AUC(0-t) at 24 h [9]: 85200 ng·h/mL
- half-life [10]: > 2 h
- remaining at 2 h [11]: 82%
- bioavailability at 24 h (in vivo [12]): 44%
- Activity [13]: Non-Toxic
- half-life [14]: 27.4 h
- Vd [15]: 0.23 L/kg
- half-life at 24 h [16]: 4.5 h
- Vd [17]: 1.74 L/kg
- half-life [18]: 4.4 h
- inhibition in vivo at 20 mg/kg (VCaP [19]): 68%
- half-life at […] [20]: > 1 h
- Tmax [21]: 4 h
- Tmax [22]: 2 h
- Vd at 24 h [23]: 1.7 L/kg
- half-life [24]: > 2 h
- half-life [25]: > 2 h
- half-life [26]: 9.9 h
- AUC(0-t) at 24 h (in vivo [27]): 6020 ng·h/mL
- DC50 [28]: 8 nM
- half-life [29]: > 2 h
- inhibition in vivo at 10 mg/kg (VCaP [30]): 50%
- Tmax [31]: 3.33 h
- half-life [32]: > 2 h
- half-life [33]: > 2 h
- bioavailability [34]: 99%
- remaining at 2 h [35]: 71%
- half-life [36]: > 2 h
- half-life at […] [37]: > 1 h
- clearance [38]: 3.33 mL/min/kg
- bioavailability [39]: 67%
- AUC(0-t) at 24 h [40]: 10300 ng·h/mL
- remaining at 2 h [41]: 92%
- half-life at 24 h [42]: 5.6 h
- half-life [43]: > 2 h
- clearance at 24 h [44]: 6 mL/min/kg
- half-life at […] [45]: > 1 h
- AUC(0-t) at 24 h [46]: 5170 ng·h/mL
